Columns and labels:
[1] = system: isolated guinea pig tracheal spirals; assay: Direct relaxation of isolated guinea pig tracheal spirals (Test 3); details: Cavia porcellus; 50% of maximum relaxation (isoproterenol 1×10^-6 M = maximum); isolated guinea pig tracheae; 37° C., pH 7.4; mean of at least two experiments
Protocol: Test 3 -Direct relaxation of isolated guinea pig tracheal spirals.
Tracheae were extracted from male guinea pigs of (b.w. 400 g) that had been stunned and exanguinated. Then, tracheae were cut in zigzag sections and placed in an isolated organ bath (Letica) containing Krebs-Henseleit solution at 37° C., pH 7.4, continuously bubbled with carbogen (95% O2 and 5% CO2). The relaxation of the tracheae was measured using an isometric force transducer. The basal tension was 0.5 g. The test compounds were cumulatively added to the bath and the effective concentration that produced 50% of the maximum relaxation (EC50) was calculated. The maximum relaxation was taken to be the relaxation induced by isoproterenol at 1×10^-6 M. The experiment was repeated at least two times and the mean was calculated.

[2] = system: noradrenaline induced contractions in isolated rat portal vein; assay: Inhibition of noradrenaline induced contractions in isolated rat portal vein (Test 1); details: 0.5 h, noradrenaline 3 μM, 30 min incubation, 37° C., pH 7.2, mean of at least two experiments
Protocol: Test 1: Inhibition of noradrenaline induced contractions in isolated rat portal vein.
Portal vein was extracted from adult male rats (b.w. 200-250 g), that had been stunned and exanguinated. Vein strips were suspended in an isolated organ bath (Letica) containing a physiological saline solution continuously bubbled with 5% CO2, 95% O2 gas at 37° C., pH 7.2. Contractions were induced by noradrenaline (3 μM) and were reverted after thorough washing with physiological saline solution. Portal vein contraction was measured with an isometric force transducer at an initial tension of 1 g. After two equal contractions with noradrenaline, performed in order to measure the tissue's basal response, the test compounds were incubated for 30 minutes and a new contraction was induced. The concentration that produces a 50% inhibition (IC50) versus the basal response was calculated. The experiment was repeated at least two times and the mean was calculated.

[3] = system: arterial pressure in conscious spontaneously hypertensive rats; assay: Lowering of the arterial pressure in conscious spontaneously hypertensive rats (Test 2); assay type: in vivo, rat; details: conscious spontaneously hypertensive male rats, caudal artery, at least 4 animals
Protocol: Test 2: Lowering of the arterial pressure in conscious spontaneously hypertensive rats.
Spontaneously hypertensive male rats (b.w. 200-250 g) were used. Diastolic and systolic arterial pressure were measured at the caudal artery using a sphygnomanometer (Letica 5007 and 5007/4) attached to the animal's tail. To ensure rapid and reliable data, animals were placed on a heating plate at 37° C., with the aim of producing a vasodilatation that ensured better fixation of the rat tail to the transducer chamber. During the experiment, rats were conscious and fixed by a clamp. The test products were administered orally. Arterial pressure was measured every 60 minutes over a period of 4 hours and 10 minutes before the administration of the test compound. […]

**Q.** `CC1(C)CC(c2cccc[n+]2[O-])c2cc(C#N)ccc2C1=O` (racemic) [Compound 12, (±)-2,2-Dimethyl-4-(N-oxide-2-pyridyl)-1-oxo-1,2,3,4-tetrahydronaphthalen-6-carbonitrile] was tested. Which EC50 [1] did it give?
**A.** Its EC50 is 3 µM.

**Q.** What about the IC50 [2] of the same compound?
**A.** The IC50 was 0.2 µM.

**Q.** What about the “Pressure Drop ± SEM” value ([3]; 1 mg/Kg p.o. (footnote *)) of the same compound?
**A.** Its value is 95 ± 9 mm Hg.

**Q.** Which results are given for `CC1(C)C=C(c2cccc[n+]2[O-])c2cc(Br)ccc2C1=O` [Compound 4, 6-Bromo-1,2-dihydro-2,2-dimethyl-4-(N-oxide-2-pyridyl)naphthalen-1-one]?
**A.** EC50 [1]: 0.2 µM; IC50 [2]: 0.8 µM; Pressure Drop ± SEM ([3]; 0.1 mg/Kg p.o.): 53 ± 8 mm Hg

**Q.** Which results are given for `CC1(C)C=C(c2cccc[n+]2[O-])c2cc(C#N)ccc2C1=O` [Compound 10, 1,2-Dihydro-2,2-dimethyl-4-(N-oxide-2-pyridyl)-1-oxonaphthalen-6-carbonitrile]?
**A.** EC50 [1]: 0.2 µM; IC50 [2]: 0.9 µM; Pressure Drop ± SEM ([3]; 0.1 mg/Kg p.o.): 53 ± 15 mm Hg

**Q.** For `CC1(C)C=C(c2cccc[n+]2[O-])c2cc(C(F)(F)C(F)(F)F)ccc2C1=O` [Compound 15, 1,2-Dihydro-2,2-dimethyl-4-(N-oxide-2-pyridyl)-6-pentafluoroethylnaphthalen-1-one], which EC50 [1] is on record?
**A.** The EC50 was 0.1 µM.

**Q.** What about the IC50 [2] of the same compound?
**A.** The IC50 was 0.6 µM.

**Q.** And the “Pressure Drop ± SEM” value ([3]; 0.1 mg/Kg p.o.)?
**A.** Its value is 98 ± 20 mm Hg.

**Q.** How did the EC50 [1] turn out when `CC1(C)C=C(c2cccc[n+]2[O-])c2cc(Cl)c(Cl)cc2C1=O` [Compound 18] was run?
**A.** Its EC50 is 0.2 µM.

**Q.** And the IC50 [2]?
**A.** The IC50 was 0.5 µM.

**Q.** What about the “Pressure Drop ± SEM” value ([3]; 0.1 mg/Kg p.o.) of the same compound?
**A.** Its value is 74 ± 42 mm Hg.

From patent US5356915A, “Tetralones with pharmacological activity, compositions containing them” (J. Uriach & Cia. S.A., priority 1992, dated 1994)
